Columns and labels:
[1] = test system: T. cruzi Tulahuen trypomastigotes; experiment: T. cruzi trypomastigote assay (Cell Titer-Glo viability, ATP luminescence); type: cell-based, Trypanosoma cruzi; settings: for Trypomastigotes pIC50 48 hours: 48 hours incubation; for Trypomastigotes pIC50 48 hours / Trypomastigotes pIC50 72 hours: pIC50 = -log10 IC50 in molar units; for Trypomastigotes pIC50 72 hours: 72 hours incubation; for 72 pIC50 (trypomastigotes, raw data of Fig 1D): 72 hours, plotted values, censored values given without sign; for 48 pIC50 / 72 pIC50: trypomastigote assay; for 48 pIC50: 48 h; for 72 pIC50: 72 h
How it was run: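 Tulahuen trypomastigotes from infected LLC-MK2 culture supernatants (days 5–8) plated at 5 × 10^4 per well in DMEM/2% FBS with compound at 5 μM single-shot final or in dose response. Viability by CellTiter-Glo ATP luminescence after 10 min at room temperature, normalised to no-cell (100%) and DMSO (0%) controls.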

[2] = test system: T. cruzi intracellular amastigotes in H9c2 cells; experiment: Rate-of-Kill (RoK) high-content imaging assay, amastigotes per cell (AM/CELL) and curve descriptors; type: cell-based, Trypanosoma cruzi; set-up: key to ME_24h / ME_48h / ME_72h: % reduction in parasite burden (cidal response); t50pct_MCC50 / t50pct_Cmax: unit not given here; settings: for ME_24h: 24h; for ME_48h: 48h; for ME_72h: 72h; for t50%_Cmax / tlag_Cmax / t50pct_Cmax: at Cmax; for ME_24h (%): maximum effect at 24 h; for ME_24h (%) / ME_48h (%) / ME_72h (%): RoK assay; for ME_48h (%): maximum effect at 48 h; for ME_72h (%): maximum effect at 72 h; for ME 24h (maximum effect at 24 hours, intracellular amastigotes): maximum percentage of parasite burden reduction reached by any concentration
How it was run: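 H9c2 cardiomyocytes infected with T. cruzi trypomastigotes (MOI 8, 18 h), then compounds tested at 5 μM single shot or 11-point 1/3 dilution from 50 μM. DRAQ5-stained nuclei imaged over a time course. Amastigotes per cell normalised to infected cells at 4 h (0%) and non-infected cells (100%).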

[3] = test system: TcCYP51; settings: formerly reported; cited from earlier work

O=C(NCCc1cccnc1)c1ccc(-c2ccccc2F)o1 [TCMDC-143190]
Trypomastigotes pIC50 48 hours [1]: < 4.3 | Trypomastigotes pIC50 72 hours [1]: < 4.3 | 72 pIC50 (trypomastigotes, raw data of Fig 1D) [1]: < 4.3 | 48 pIC50 ([1]; figure 1A): < 4.3 | 72 pIC50 ([1]; figure 1A): < 4.3 | 72 pIC50 ([1]; figure 1B): < 4.3 | ME_24h ([2]; figure 5): -188.225 | ME_48h ([2]; figure 5): -99.3488 | ME_72h ([2]; figure 5): 47.7023 | MCC50 ([2]; RoK curve descriptor): 5.6 µM | MCCE ([2]; RoK curve descriptor): 0.2 µM | AM/CELL NORM ([2]; Time 4, sheet figure 4 A): 10.7478 | AM/CELL NORM ([2]; Time 24, sheet figure 4 A): -116.413 | AM/CELL NORM ([2]; Time 48, sheet figure 4 A): -106.707 | AM/CELL NORM ([2]; Time 72, sheet figure 4 A): 59.1013 | t50%_Cmax [2]: 72.0 h | tlag_Cmax [2]: 24.0 h | t50pct_Cmax ([2]; figure 5): 72 | tlag_Cmax ([2]; figure 5): 24 | t50%_MCC50 ([2]; at MCC50): 72.0 h | tlag_MCC50 ([2]; at MCC50): 24.0 h | t50pct_MCC50 ([2]; at MCC50, figure 5): 72 | tlag_MCC50 ([2]; at MCC50, figure 5): 48 | MCCE ([2]; figure 5): 0.2058 | MCC50 ([2]; figure 5, in µM): 27.7778 | ME_24h (%) [2]: -188.2% | ME_48h (%) [2]: -99.4% | ME_72h (%) [2]: 47.7% | ME 24h (maximum effect at 24 hours, intracellular amastigotes) [2]: -116.413% | CYP51 pIC50 [3]: 7.2

Cl.O=c1cc(NCCCNC2CCOc3c(I)cc(Cl)cc32)[nH]c2ccccc12 (stereo not drawn) [TCMDC-139489]
Trypomastigotes pIC50 48 hours [1]: 5.8 | Trypomastigotes pIC50 72 hours [1]: 6 | ME (maximum effect) in RoK assay (in words) [2]: high ME at 24 hours and 72 hours | tlag (in words) [2]: short tlag times | ME_24h ([2]; figure 5): 37.6706 | ME_48h ([2]; figure 5): 64.7005 | ME_72h ([2]; figure 5): 58.8587 | MCC50 ([2]; RoK curve descriptor): 5.6 µM | MCCE ([2]; RoK curve descriptor): 0.2 µM | AM/CELL NORM ([2]; Time 4, figure 4 A): 5.191 | AM/CELL NORM ([2]; Time 24, figure 4 A): 37.6706 | AM/CELL NORM ([2]; Time 48, figure 4 A): 64.7005 | AM/CELL NORM ([2]; Time 72, figure 4 A): 58.8587 | t50%_Cmax [2]: 48.0 h | tlag_Cmax [2]: 4.0 h | t50pct_Cmax ([2]; figure 5): 48 | tlag_Cmax ([2]; figure 5): 4 | t50%_MCC50 ([2]; at MCC50): 72.0 h | tlag_MCC50 ([2]; at MCC50): 4.0 h | t50pct_MCC50 ([2]; at MCC50, figure 5): 72 | tlag_MCC50 ([2]; at MCC50, figure 5): 4 | MCCE ([2]; figure 5): 0.2058 | MCC50 ([2]; figure 5, in µM): 5.556 | ME_24h (%) [2]: 37.7% | ME_48h (%) [2]: 64.7% | ME_72h (%) [2]: 58.9% | ME 24h (maximum effect at 24 hours, intracellular amastigotes) [2]: 37.6706% | CYP51 pIC50 [3]: 4.8

COc1ccc(C(=O)Nc2cc(C(F)(F)F)ccc2N2CCOCC2)c(OC)c1 [TCMDC-143310]
Trypomastigotes pIC50 48 hours [1]: 5.8 | Trypomastigotes pIC50 72 hours [1]: 6 | ME_24h ([2]; figure 5): 64.6908 | ME_48h ([2]; figure 5): 80.1309 | ME_72h ([2]; figure 5): 94.1302 | MCC50 ([2]; RoK curve descriptor): 1.9 µM | MCCE ([2]; RoK curve descriptor): 0.6 µM | AM/CELL NORM ([2]; Time 4, sheet figure 4 A): -57.2428 | AM/CELL NORM ([2]; Time 24, sheet figure 4 A): 64.6908 | AM/CELL NORM ([2]; Time 48, sheet figure 4 A): 80.1309 | AM/CELL NORM ([2]; Time 72, sheet figure 4 A): 94.1302 | t50%_Cmax [2]: 24.0 h | tlag_Cmax [2]: 4.0 h | t50pct_Cmax ([2]; figure 5): 24 | tlag_Cmax ([2]; figure 5): 4 | t50%_MCC50 ([2]; at MCC50): 72.0 h | tlag_MCC50 ([2]; at MCC50): 4.0 h | t50pct_MCC50 ([2]; at MCC50, figure 5): 72 | tlag_MCC50 ([2]; at MCC50, figure 5): 4 | MCCE ([2]; figure 5): 0.6173 | MCC50 ([2]; figure 5, in µM): 1.852 | ME_24h (%) [2]: 64.7% | ME_48h (%) [2]: 80.1% | ME_72h (%) [2]: 94.1% | ME 24h (maximum effect at 24 hours, intracellular amastigotes) [2]: 64.6908% | CYP51 pIC50 [3]: < 4

O=S(=O)(c1cccc(CSc2nnc(-c3ccc4c(c3)OCO4)o2)c1)N1CCOCC1 [TCMDC-143197]
Trypomastigotes pIC50 48 hours [1]: < 4.3 | Trypomastigotes pIC50 72 hours [1]: < 4.3 | 72 pIC50 (trypomastigotes, raw data of Fig 1D) [1]: < 4.3 | 48 pIC50 ([1]; figure 1A): < 4.3 | 72 pIC50 ([1]; figure 1A): < 4.3 | 72 pIC50 ([1]; figure 1B): < 4.3 | ME_24h ([2]; figure 5): -16.5303 | ME_48h ([2]; figure 5): 13.4442 | ME_72h ([2]; figure 5): 33.635 | MCCE ([2]; RoK curve descriptor): 0.07 µM | AM/CELL NORM ([2]; Time 4, sheet figure 4 A): -18.4264 | AM/CELL NORM ([2]; Time 24, sheet figure 4 A): -16.5303 | AM/CELL NORM ([2]; Time 48, sheet figure 4 A): -6.567 | AM/CELL NORM ([2]; Time 72, sheet figure 4 A): 29.0194 | tlag_Cmax [2]: 4.0 h | t50pct_Cmax ([2]; figure 5): 72 | tlag_Cmax ([2]; figure 5): 4 | t50pct_MCC50 ([2]; at MCC50, figure 5): 72 | tlag_MCC50 ([2]; at MCC50, figure 5): 72 | MCC50 ([2]; figure 5): 50 µM | MCCE ([2]; figure 5): 0.06859 | ME_24h (%) [2]: -16.5% | ME_48h (%) [2]: 13.4% | ME_72h (%) [2]: 33.6% | ME 24h (maximum effect at 24 hours, intracellular amastigotes) [2]: -16.5303% | CYP51 pIC50 [3]: 4.9

COc1ccc(C(C)N(C)c2ncc3c(N)nc(N)nc3n2)cc1F (stereo not drawn) [TCMDC-143298]
Trypomastigotes pIC50 48 hours [1]: 6.5 | Trypomastigotes pIC50 72 hours [1]: 6.7 | MCC and MCCE values (in words) [2]: low MCC and MCCE values | ME (maximum effect) in RoK assay (in words) [2]: high ME value | tlag times [2]: 4 h | ME_24h ([2]; figure 5): 43.2682 | ME_48h ([2]; figure 5): 65.4547 | ME_72h ([2]; figure 5): 72.4604 | MCC50 ([2]; RoK curve descriptor): 1.4 µM | MCCE ([2]; RoK curve descriptor): 0.16 µM | AM/CELL NORM ([2]; Time 4, sheet figure 4 A): 12.1557 | AM/CELL NORM ([2]; Time 24, sheet figure 4 A): 34.3534 | AM/CELL NORM ([2]; Time 48, sheet figure 4 A): 59.1852 | AM/CELL NORM ([2]; Time 72, sheet figure 4 A): 72.1771 | t50%_Cmax [2]: 64.0 h | tlag_Cmax [2]: 4.0 h | t50pct_Cmax ([2]; figure 5): 64 | tlag_Cmax ([2]; figure 5): 4 | t50%_MCC50 ([2]; at MCC50): 56.0 h | tlag_MCC50 ([2]; at MCC50): 4.0 h | t50pct_MCC50 ([2]; at MCC50, figure 5): 56 | tlag_MCC50 ([2]; at MCC50, figure 5): 4 | MCC50 ([2]; figure 5): 1.44 µM | MCCE ([2]; figure 5): 0.16 | ME_24h (%) [2]: 43.3% | ME_48h (%) [2]: 65.5% | ME_72h (%) [2]: 72.5% | ME 24h (maximum effect at 24 hours, intracellular amastigotes) [2]: 45.8485% | CYP51 pIC50 [3]: < 4

CCC(=O)Nc1ccc(C(=O)Nc2ccccc2-c2ccccc2)cc1 [TCMDC-143286]
Trypomastigotes pIC50 48 hours [1]: 5.9 | Trypomastigotes pIC50 72 hours [1]: 6 | ME_24h ([2]; figure 5): 59.883 | ME_48h ([2]; figure 5): 81.1358 | ME_72h ([2]; figure 5): 89.3246 | MCC50 ([2]; RoK curve descriptor): 1.9 µM | MCCE ([2]; RoK curve descriptor): 0.6 µM | AM/CELL NORM ([2]; Time 4, sheet figure 4 A): 27.4861 | AM/CELL NORM ([2]; Time 24, sheet figure 4 A): 59.883 | AM/CELL NORM ([2]; Time 48, sheet figure 4 A): 81.1358 | AM/CELL NORM ([2]; Time 72, sheet figure 4 A): 89.3246 | t50%_Cmax [2]: 24.0 h | tlag_Cmax [2]: 4.0 h | t50pct_Cmax ([2]; figure 5): 24 | tlag_Cmax ([2]; figure 5): 4 | t50%_MCC50 ([2]; at MCC50): 48.0 h | tlag_MCC50 ([2]; at MCC50): 4.0 h | t50pct_MCC50 ([2]; at MCC50, figure 5): 48 | tlag_MCC50 ([2]; at MCC50, figure 5): 4 | MCCE ([2]; figure 5): 0.6173 | MCC50 ([2]; figure 5, in µM): 1.852 | ME_24h (%) [2]: 59.9% | ME_48h (%) [2]: 81.1% | ME_72h (%) [2]: 89.3% | ME 24h (maximum effect at 24 hours, intracellular amastigotes) [2]: 59.883% | CYP51 pIC50 [3]: < 4

From publication PMC8318231, “Rate-of-Kill (RoK) assays to triage large compound sets for Chagas disease drug discovery: Application to GSK Chagas Box” (PLoS Neglected Tropical Diseases, 2021)
